Assay results published in US9040261B2, “Compounds as L-cystine crystallization inhibitors and uses thereof” (NEW YORK UNIVERSITY, priority 2009, dated 2015).
Counter-ions that a name gives are not always drawn.

Assays:
[1] = Bulk crystallization of L-cystine in the presence of additives (mass yield); details: 2 mg/L additive, 0.7 g/L L-cystine (pH 6.8); no additive 80; approximate error ±8%
Description: Alternately, the hexagonal crystals can be obtained by crystallization performed near neutral pH (Sa) The hexagonal form was crystallized from a supersaturated L-cystine solution prepared by adding 70 mg of L-cystine to 100 mL of deionized water (3 mM), and heating under reflux at 100° C. for 20 min with stirring to completely dissolve L-cystine. […] This concentration was used for bulk crystallization studies in the presence of additives so that a measurable amount of bulk crystals could be obtained in a reasonable time. The solution was then allowed to cool slowly with stirring for 75 min. 30 mL aliquots were transferred to separate glass containers, which were then sealed to prevent evaporation and exposure to airborne particulates and stored for 72 hours at room temperature without stirring. […] The crystals retrieved in this manner were used for AFM studies by mounting individual crystals according to the procedure described below.
Various proteins, poly-amino acids, and molecular mimics of L-cystine were examined as additives. The aforementioned procedure for hexagonal platelet crystallization was repeated. Following the 75 min cooling period, prior to any observable crystallization, the additive was added to the supersaturated L-cystine solution to the desired concentration. […] Crystallization without additive was performed in an identical manner for comparison using a control solution from the same batch. The mass yields of L-cystine crystals were obtained by dividing the mass of L-cystine crystals (collected from growth solution by filtration) by the mass of L-cystine added in the growth solution.
Additives chosen for these studies were various proteins, poly-amino acids, and molecular mimics of L-cystine (see Table 1). The above procedure for hexagonal platelet crystallization was repeated until completion of the 75 min cooling period, at which point 29.5 g of solution was transferred to a 100 mL beaker containing 0.5 g of separately prepared additive solution to yield net concentrations of 2 mg/L additive and 0.7 g/L L-cystine. Additive solutions were replaced with deionized water of equivalent volume for control measurements. […]
L-cystine bulk crystallization was investigated in the presence of various polymers, urinary constituents, fish antifreeze proteins (AFPs), and L-cystine derivatives (i.e. structural mimics of L-cystine), which were analyzed as possible growth inhibitors of hexagonal L-cystine. The potency of each additive was assessed by comparing the difference in crystal yield (Table 1), which is equal to the mass of crystals formed in the presence of 2 mg/L additive (isolated with […]) divided by the total mass of L-cystine (700 mg/L).

[2] = Real time in situ AFM step velocity measurements, static conditions; details: 5 g/L cystamine
Description: A Digital Instruments (Santa Barbara, Calif.) Nanoscope IIIa Multimode system was used for topographical and lattice imaging. All measurements were performed in contact mode using Veeco NP_B Si3N4 cantilever tips with a spring constant of 0.12N/m (triangular, 196 μm length, 41 μm width) on a glass cantilever holder, and a liquid cell was created for in situ step velocity measurements. All L-cystine crystals for AFM measurements were prepared by method 1. Crystals were transferred onto an AFM specimen disk coated with partially cured (1 hr) UV-curable optical cement (Type SK-9, EMS Acquisition Corp.) by gently pressing the disk against hexagonal platelets or L-cystine needles isolated by filtration (Whatman Nuclepore membrane, 8 μm). The (0001) face of hexagonal platelets was exposed normal to the disk for AFM analysis with growth occurring along equivalent {1010} faces in the lateral directions, while the sides of L-cystine needles were exposed normal to the disc. The partially cured polymer with adhered crystals was completely cured by additional UV radiation (2 hrs) prior to analysis. Measurements of individual step heights for hexagonal L-cystine crystals were acquired in air (contact mode) at a scan rate of 1.00 Hz and 256 samples per line over a 15×15 μm^2 surface area. Integral and proportional gains were set to the highest possible values without obtaining feedback. Four hexagonal crystals (5 areas per crystal) were analyzed for statistical step height distributions, which were calculated from >10^3 individual steps. Lattice-resolved images of crystal surfaces were acquired in water (contact mode) using a scan rate of 112 Hz over a 12×12 nm^2 area.
Real time in situ step velocity measurements of L-cystine growth were assessed along six structurally-equivalent {1010} faces of the hexagonal structure. A liquid cell was created with the glass cantilever tip holder, and working solutions were injected through a 1-mL syringe. Prior to injecting the growth medium (i.e. supersaturated L-cystine solution), crystals were etched with deionized water in the fluid cell for one hour to remove amorphous deposits or impurities that may be present on the surface. Supersaturated solutions (0.5 g/L) were generated by adding L-cystine to deionized water, boiling the solution on a heating mantle for 20 min to completely dissolve the solute, and allowing the solution to cool for 20 min on the heating mantle before transferring the solution (via syringe) to the AFM fluid cell. […]
The effect of additives on crystal growth rates was investigated. […] For each measurement, growth was first assessed in the absence of additive, then in the presence of additive on the identical area of the crystal surface to analyze relative changes in step velocity. […]

[3] = pH 7, 25° C.; cited from earlier work

Compound | Yield (%) = (collected mass by filtration, >11 μm)/(total mass added) × 100% [1] | reduction of step velocity relative to the control [2] | Step velocity ([2]; 0.5 g/L L-cystine, 25° C., static, without additive ~29 nm/min, independent of step height) | solubility of L-cystine in water [3]
NCCSSCCN [Cystamine, cystamine dihydrochloride, reference compound] | 30% | 36% | 18 ± 3 nm/min | –
N[C@@H](CSSC[C@H](N)C(=O)O)C(=O)O [L-cystine] | – | – | – | 0.4 to 0.7 mM
